The source of these data is patent publication US20050090496A1, “Sulphonyl compounds with 5-ht6 receptor affinity” (priority 2002, published 2005).

Counter-ions that a name gives are not always drawn.

This assay has as its target T1, human cloned 5-HT6 receptors (Homo sapiens, UniProt P50406).
T1 construct: expressed in transfected cells
Briefly: affinity for the 5-HT6 receptor (procedures of WO98/27081). It is filed as binding. The text has this: Compounds can be tested following the procedures outlined in WO98/27081.

T1 sequence (P50406 whole entry): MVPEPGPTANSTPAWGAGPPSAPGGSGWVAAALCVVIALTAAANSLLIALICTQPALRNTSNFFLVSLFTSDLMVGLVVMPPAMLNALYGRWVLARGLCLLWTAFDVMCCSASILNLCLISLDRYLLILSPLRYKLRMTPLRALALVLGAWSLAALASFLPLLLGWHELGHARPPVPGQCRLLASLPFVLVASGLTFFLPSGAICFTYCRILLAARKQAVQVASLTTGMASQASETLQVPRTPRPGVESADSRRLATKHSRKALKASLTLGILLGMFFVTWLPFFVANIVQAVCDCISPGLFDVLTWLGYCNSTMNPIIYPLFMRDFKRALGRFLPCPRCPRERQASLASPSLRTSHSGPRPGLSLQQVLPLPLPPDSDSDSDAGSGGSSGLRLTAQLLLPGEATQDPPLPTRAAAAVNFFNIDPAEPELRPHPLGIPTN

For `O=S(=O)(c1cccc(Cl)c1)n1ccc2c(N3CCNCC3)ccnc21` [Example E1, 4[1-(3-Chlorobenzenesulfonyl)-1-pyrrolo[2,3-b]pyridin-4-yl]-piperazine hydrochloride], the Ki is < 10 nM.

Broadly, the Ki is the equilibrium dissociation constant of an inhibitor or competing ligand from its target.
